From patent publication US20230144436A1, “MUSCLE TARGETING COMPLEXES AND USES THEREOF FOR TREATING MYOTONIC DYSTROPHY” (Dyne Therapeutics, Inc., priority 2020, published 2023)

Tests used:
DMPK [1] = test: DMPK knockdown by transfected antisense oligonucleotides in DM1 C15 myotubes at 0.5 nM and 50 nM; type: cell-based; conditions: 72 hours, qPCR; for Percent DMPK Reduction: relative to vehicle control; for Normalized DMPK Remaining: relative to vehicle control = 1.00
How it was run: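 Seven-day-differentiated DM1 C15 myotubes transfected (Lipofectamine MessengerMax) with each oligonucleotide at 0.5 nM or 50 nM final, biological triplicates. After 72 h, DMPK mRNA quantified by qPCR, expressed relative to vehicle-only transfection set to 1.00.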

DMPK [2] = test: Dose-responsive DMPK reduction in DM1 C15 myotubes (EC-50); type: cell-based; conditions: DM1 C15 differentiated myotubes, 72 hours; for EC50: transfection with Lipofectamine MessengerMax, 0.046-100 nM; for Percent DMPK reduction at 100 nM: transfection
Procedure: Eighteen oligonucleotides from Example 7 were selected to be evaluated for their ability to reduce DMPK expression in a dose-responsive manner. DM1 C15 myoblasts were prepared as in Example 7 to yield differentiated myotubes in 96-well microplates. After seven days of differentiation, cells were transfected with individual oligonucleotides using Lipofectamine MessengerMax. Each oligonucleotide was tested in triplicate at concentrations of 0.046 nM, 0.137 nM, 0.412 nM, 1.235 nM, 3.704 nM, 11.11 nM, 33.33 nM, and 100 nM by 3-fold serial dilutions using 0.3 μL of Lipofectamine MessengerMax per well.
Following addition of oligonucleotide, cells were incubated for 72 hours prior to harvesting for total RNA. cDNA was synthesized from the total RNA extracts and qPCR was performed to determine expression levels of DMPK using a commercially available Taqman probeset in technical quadruplicate. All qPCR data were analyzed using a traditional ΔΔCT method and were normalized to a plate-based negative control that comprised of cells treated with vehicle control (0.3 μL/well Lipofectamine MessengerMax without any oligonucleotide). Data for each oligonucleotide to was fit to sigmoidal curve in order to determine an effective concentration of each oligonucleotide that provided a half-maximal response (EC-50).

Substance	Percent DMPK Reduction (DMPK [1]; 0.5 nM oligonucleotide) [%]	Normalized DMPK Remaining (DMPK [1]; 0.5 nM oligonucleotide)	Percent DMPK Reduction (DMPK [1]; 50 nM oligonucleotide) [%]	Normalized DMPK Remaining (DMPK [1]; 50 nM oligonucleotide)	EC50 (DMPK [2]) [nM]	Percent DMPK reduction at 100 nM (DMPK [2]) [%]
257 (CAUGGCAUACACCUGGCCCG; chemistry not given here) [compound 257]	31.63	0.68	74.03	0.26	0.42	75.28
260 (CGAAUGUCCGACAGUGUCUC; chemistry not given here) [compound 260]	40.21	0.60	64.42	0.36	0.18	95.93
270 (GGGCCUGGGACCUCACUGUC; chemistry not given here) [compound 270]	37.19	0.63	76.81	0.23	0.07	90.58
272 (CUCUGCCGCAGGGACAGCCG; chemistry not given here) [compound 272]	37.09	0.63	93.59	0.06	0.42	93.66
278 (CCAUCUCGGCCGGAAUCCGC; chemistry not given here) [compound 278]	20.50	0.79	59.76	0.40	0.44	95.42
280 (UUGCCAUAGGUCUCCGCCGU; chemistry not given here) [compound 280]	36.30	0.64	60.12	0.40	0.37	93.70
286 (GCUUCAUCUUCACUACCGCU; chemistry not given here) [compound 286]	31.44	0.69	51.78	0.48	0.03	64.06
288 (CAGGGACAGCCGCUGGAACU; chemistry not given here) [compound 288]	32.09	0.68	58.84	0.41	6.04	90.59
293 (GAAUGUCCGACAGUGUCUCC; chemistry not given here) [compound 293]	30.09	0.70	63.41	0.37	0.07	97.23
294 (CGUUCCAUCUGCCCGCAGCU; chemistry not given here) [compound 294]	33.74	0.66	68.72	0.31	0.19	89.97
299 (GCAGGAUGUUGUCGGGUUUG; chemistry not given here) [compound 299]	44.39	0.56	78.03	0.22	0.168	89.77
301 (UGUUGUCGGGUUUGAUGUCC; chemistry not given here) [compound 301]	21.00	0.79	42.19	0.58	0.21	93.95
310 (GCGUAGAAGGGCGUCUGCCC; chemistry not given here) [compound 310]	39.53	0.60	77.91	0.22	24.6	95.13
